Laboratory results: US20190350940A1, “PLATINUM COMPOUNDS, COMPOSITIONS, AND USES THEREOF” (priority 2015, published 2019)
“And” between values parts separate entries of the source, which are not always exact repeats. Identical values can stand only once. “Also recorded” adds a separate entry of the source.

Legend:
Microsomal stability = format: in vitro ADME; conditions: NADPH-free controls
Description: Microsomal stability could not be performed because negative controls failed. […] This is consistent with literature reports that microsomes contain protein thiols (Liebler D C, Meredith M J, Guengerich F P. Formation of glutathione conjugates by reactive metabolites of vinylidene chloride in microsomes and isolated hepatocytes. Cancer Res 1985; 45(1):186-93, the contents of which are incorporated herein by reference in their entirety), would react with Compound 8. CYP inhibition was studied to determine whether Compound 8 has an inhibitory effect on microsomes.

[1] = Vial selection: clear versus amber (light versus dark); format: physicochemical; conditions: 5 mM citrate buffer saline pH about 4, room temperature 24 hours
Protocol: To compare light versus dark conditions, Compound 8 was formulated in 5 mM citrate buffer saline at pH about 4 and placed into two separate vials (one clear and the other amber). The formulations were stored at room temperature for 24 hours and the amount of Impurity 1 and Impurity 2 was observed. From the FIGS. 4 and 5, it can be seen that exposing the Compound 8 solution to light in a clear vial caused an increase in the amount of Impurity 1 in comparison to the solution contained in an amber vial (˜10% Impurity 1 compared to ˜0.75% Impurity 1). […] Also, from these experiments it was concluded that the formation of Impurity 2 is not photosensitive but dependent upon the pH of the formulation.

[2] = pH stability: pH range screen in Britton Robinson buffer (Impurity 2 formation); format: physicochemical; conditions: 0.1 mg/ml in Britton Robinson buffer, room temperature
Protocol: It has been well established in the literature that the maleimide group is susceptible to a ring-opening product at physiological pH values. In order to determine the stability of Compound 8 at a range of pH values, a stock solution of 10 mg/ml Compound 8 in N,N-dimethylformamide (DMF) was spiked into a series of Britton Robinson buffers with pH set at values of 2, 4, 5, 6, 7.3, and 8 to make a final concentration of 0.1 mg/ml Compound 8. The amount of Impurity 2 (maleimide ring opening impurity) that was produced over the course of 24 hr at room temperature is shown in FIG. 1.

[3] = tested on: BxPC-3 human pancreatic adenocarcinoma; experiment: BxPC-3 pancreatic xenograft model; format: in vivo, mouse; conditions: female, Crl:NU(NCr)-Foxn1^nu nude, mouse, in vivo, 20 mg/kg, 13 day
Protocol: The effect of Compound 8 on TGI was evaluated in the BxPC-3 human pancreatic adenocarcinoma nude mouse (female Crl:NU(NCr)-Foxn1^nu) xenograft model.

[4] = Platinum pharmacokinetics/toxicokinetics in rat; conditions: in vivo
Protocol: Platinum in the plasma ultrafiltrate was considered free drug (non-protein bound), while the platinum in the plasma was a combination of protein bound and free drug.
(§1) Groups of 30 animals (15/sex) each received vehicle control or Compound 8 9, 14, 19, or 6 mg/kg. Groups of 20 animals (10/sex) received Compound 8 9, 14, 19, or 6 mg/kg and 6 animals (3/sex) received vehicle control in the TK portion of the study.

CYP3A4 = CYP3A4 (Homo sapiens, UniProt P08684); experiment: CYP inhibition, 3A4; format: in vitro ADME
CYP2B6 = CYP2B6 (Homo sapiens, UniProt P20813); experiment: CYP inhibition, 2B6; format: in vitro ADME
[5] = tested on: A2780 human ovarian cancer; experiment: A2780 ovarian xenograft model; format: in vivo, mouse; conditions: mouse, in vivo, 20 mg/kg
Protocol: The effect of Compound 8 on tumor growth inhibition (TGI) was evaluated in the A2780 human ovarian cancer nude mouse (female Crl:NU(NCr)-Foxn1^nu) xenograft model.

CYP1A2 = target: T1, CYP1A2 (Homo sapiens, UniProt P05177); experiment: CYP inhibition, 1A2; format: in vitro ADME
T1 construct: host or cells: microsomes are mentioned

human plasma = experiment: In vitro plasma protein binding, human plasma (Compound 8-DMPK-008); format: in vitro ADME; conditions: incubation 10 minutes at 37° C.
[6] = Single dose intravenous dose range-finding toxicity study in male rats (Compound 8-TX-001); format: in vivo; conditions: male, rat, in vivo, iv, single IV dose, male rats, N=3 per group; read-out: MTD and STD10
Protocol: (§2) This study (Compound 8-TX-001) was designed as a dose range finding study to support the dose selection for the repeat-dose IV toxicity GLP study in rats (Compound 8-TX-007).
(§3) The test article, Compound 8, was formulated prior to dosing as a solution in 5 mM citrate buffered saline (0.9% sodium chloride), pH about 4-4.5, at nominal concentrations of 2.7, 1.4, 1.9, and 2.3 mg/mL. Compound 8 was administered via IV injection to groups of 3 animals each at doses of 27, 14, 19, and 23 mg/kg. Dose formulations were all within the acceptance criteria (±10% of target concentration) ranging from 98.8 to 106.2 percent of target concentration. Assessment of toxicity was based on mortality, clinical observations, body weight, and food consumption, and clinical and anatomic pathology.

male rats = experiment: as above; format: in vivo; conditions: rat
Protocol: as §2, §3

male and female rats = experiment: Repeat-dose intravenous toxicity study in rats with a 3-week recovery period (Compound 8-TX-007); format: in vivo
Protocol: as §1
Assessment of toxicity was based on mortality, clinical observations, functional observational battery evaluations, body weight, and food consumption and efficiency; ophthalmoscopic examinations; and clinical and anatomical pathology. RBC pellet analysis was conducted for total platinum content.
Toxicity and TK assessments were conducted for the test article and positive control.

Chain of CYP2B6 (P20813 whole entry): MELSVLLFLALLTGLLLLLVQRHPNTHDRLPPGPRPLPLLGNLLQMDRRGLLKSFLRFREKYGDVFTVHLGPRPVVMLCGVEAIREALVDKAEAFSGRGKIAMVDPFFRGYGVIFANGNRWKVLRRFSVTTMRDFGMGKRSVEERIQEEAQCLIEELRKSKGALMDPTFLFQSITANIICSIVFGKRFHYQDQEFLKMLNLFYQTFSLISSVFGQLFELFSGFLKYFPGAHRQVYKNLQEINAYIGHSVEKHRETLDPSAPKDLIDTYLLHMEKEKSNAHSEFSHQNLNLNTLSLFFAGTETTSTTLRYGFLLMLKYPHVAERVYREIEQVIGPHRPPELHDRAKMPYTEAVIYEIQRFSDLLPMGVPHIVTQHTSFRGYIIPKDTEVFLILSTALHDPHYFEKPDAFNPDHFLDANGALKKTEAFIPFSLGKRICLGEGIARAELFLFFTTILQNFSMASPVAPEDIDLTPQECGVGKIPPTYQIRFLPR
Chain of CYP3A4 (P08684 whole entry): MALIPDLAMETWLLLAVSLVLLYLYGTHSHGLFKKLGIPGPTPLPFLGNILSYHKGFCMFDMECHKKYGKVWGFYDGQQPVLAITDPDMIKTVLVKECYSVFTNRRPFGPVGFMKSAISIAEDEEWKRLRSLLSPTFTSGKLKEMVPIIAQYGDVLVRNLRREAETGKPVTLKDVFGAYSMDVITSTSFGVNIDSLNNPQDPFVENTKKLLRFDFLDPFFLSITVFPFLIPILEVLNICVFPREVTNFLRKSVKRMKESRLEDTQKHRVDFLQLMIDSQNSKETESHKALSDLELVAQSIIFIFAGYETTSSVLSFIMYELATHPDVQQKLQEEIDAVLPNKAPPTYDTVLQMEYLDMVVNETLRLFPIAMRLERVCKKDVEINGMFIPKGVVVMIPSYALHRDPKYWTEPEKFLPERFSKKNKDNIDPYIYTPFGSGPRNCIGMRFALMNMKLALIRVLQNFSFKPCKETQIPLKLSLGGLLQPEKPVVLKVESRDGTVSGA
T1 sequence (P05177 whole entry): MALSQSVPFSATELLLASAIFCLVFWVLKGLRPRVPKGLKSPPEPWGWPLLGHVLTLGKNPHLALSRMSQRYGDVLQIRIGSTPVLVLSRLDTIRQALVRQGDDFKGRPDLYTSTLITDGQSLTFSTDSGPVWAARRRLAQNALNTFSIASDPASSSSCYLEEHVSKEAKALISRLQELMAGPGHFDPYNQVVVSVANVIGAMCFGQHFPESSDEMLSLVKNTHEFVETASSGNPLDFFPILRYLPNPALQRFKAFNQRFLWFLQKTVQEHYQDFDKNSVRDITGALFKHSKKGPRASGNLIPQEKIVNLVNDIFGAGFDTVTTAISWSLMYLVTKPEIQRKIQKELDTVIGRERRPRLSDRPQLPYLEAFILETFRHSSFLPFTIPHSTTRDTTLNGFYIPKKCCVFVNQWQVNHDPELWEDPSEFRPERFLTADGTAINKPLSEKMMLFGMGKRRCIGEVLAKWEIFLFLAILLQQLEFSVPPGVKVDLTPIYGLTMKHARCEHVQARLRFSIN

Structure (SMILES): CC(=O)[O][Pt]([NH2])([NH2])([Cl])([Cl])[O]C(=O)NCCCCCN1C(=O)C=CC1=O [Compound 8]
- Stability in microsome preparations (Microsomal stability): below the limit of quantitation; also recorded: disappeared quickly
- Amount of Impurity 1 ([1]; amber vial (dark)): ~0.75%
- Amount of Impurity 1 ([1]; clear vial (light)): ~10%
- Amount of Impurity 2 ([1]; clear vial (light)): 0.5%
- Impurity 2 (maleimide ring opening impurity) formation ([2]; pH 5, 4 hr): not detected
- Impurity 2 (maleimide ring opening impurity) formation ([2]; pH 6, within 1 hr): not detected
- Impurity 2 (maleimide ring opening impurity) formation ([2]; pH values below 4, up to 24 hr): not produced
- Treatment-related side effects [3]: swollen tails on Day 13 in all animals
- Ultrafiltrate levels as share of the total platinum levels ([4]; both): approximately 1%
- RBC platinum concentrations, Day 21 relative to Day 1 ([4]; 19 mg/kg): did not result in significant accumulation of platinum in the RBCs
- IC50 (CYP3A4): 1960 nM
- IC50 (CYP2B6): 582 nM
- Mean maximal BW loss [5]: 7.4%
- IC50 (CYP1A2): 550 nM
- Protein bound (human plasma): > 99%
- MTD [6]: 19 mg/kg
- Renal function and renal injury (male rats; in vivo, 14 mg/kg): Evidence of reduced renal function and renal injury
- Inflammatory response (leukocytes, neutrophils, monocytes, lymphocytes) (male rats; in vivo, 19 mg/kg): Evidence of an inflammatory response
- Body weight (male rats; in vivo, 23 mg/kg): Decreases in body weight were noted throughout the study
- MTD and STD10 (MTD dose) (male rats; single IV dose, corresponds to 19 mg/kg): 122 mg/m^2 and 120 (MTD*) mg/m^2 and 120 (MTD^1) mg/m^2
- Body weights (decreased relative to vehicle) (male and female rats; Compound 8 9 mg/kg): transiently through Day 7
- Local tolerance: microscopic evaluation of the last injection site (male and female rats; Compound 8 19 mg/kg, terminal males and females): slightly increased incidence and/or severity of perivascular subacute/chronic inflammation and/or hemorrhage
- Changes attributable to altered renal function (male and female rats; Compound 8 9, 14, 19 mg/kg): noted in both sexes at all Compound 8 dose levels
- Deaths, clinical observations, functional observation battery (FOB), ophthalmic examinations (male and female rats; Compound 8 9, 14, 19 mg/kg): no deaths and no effects were noted
- Clinical Chemistry (moderate to marked) (male and female rats; Compound 8, 19 mg/kg): Creatinine↑, AST↑, ALT↑,; also recorded: Amylase↑, Lipase↑,; also recorded: Cholesterol↑ Globulin↑
- Clinical observations, FOB and ophthalmic observations (male and female rats; Compound 8, 19 mg/kg): No adverse effects
- Mortality (male and female rats; Compound 8, 19 mg/kg): No unscheduled deaths
- Pathology: Kidneys (moderate or severe) (male and female rats; Compound 8, 19 mg/kg): Tubule degeneration/necrosis
- Pathology: Organ weights (male and female rats; Compound 8, 19 mg/kg): Thymus↓
- Pathology: Stomach nonglandular (male and female rats; Compound 8, 19 mg/kg): erosion ulcer (1M), no
- Pathology: Testes (male and female rats; Compound 8, 19 mg/kg): Degeneration/atrophy (1M)
- Pathology: Thymus (male and female rats; Compound 8, 19 mg/kg): (1M), (moderate at terminal,
- Microscopic changes, kidney (male and female rats; rat, in vivo): kidney tubular degeneration/necrosis and/or regeneration
- Organ weight changes (male and female rats; rat, in vivo, 14 mg/kg): decreased absolute and relative thymus weights in males and females
- Increase in urea nitrogen (male and female rats; rat, in vivo, 19 mg/kg): +14%
